Target: T1, IGF1R Ba/F3 (Homo sapiens, UniProt P08069)
Assay: Ba/F3 Cell Viability Inhibition Assay (Tel-TK transformed Ba/F3 lines)
Assay type: cell-based, murine
Parameters: most likely, as the lines are called Tel-TK) or BCR (P11274)
Conditions: Tel-TK (IGF1R) transformed Ba/F3 cells, 48 hours incubation, cell viability (Britelite luminescence)
Description: Ba/F3 is a murine IL-3-dependent pro-B lymphoma cell line. Parental Ba/F3 cells are used to generate a panel of sublines whose proliferation and survival is rendered IL-3-independent by stable transduction with individual tyrosine kinases activated by fusion with the amino-terminal portion of TEL (amino acid 1-375) or BCR. In order to generate Ba/F3 cell lines transformed by Tel-Tyrosine Kinase (TK) fusions, parental Ba/F3 cells are infected with a retrovirus harboring each TEL-fusion kinase and subjected to puromycin selection and IL-3 withdrawal to obtain IL-3-independent, transformed Ba/F3 cells.
Each transformed Ba/F3 cells are cultured in RPMI-1640 media (Gibco Cat #11875093, Carlsbad, Calif.) supplemented with 10% FBS (Hyclone Cat #SV30014.03, Logan, Utah), 4.5 g/L glucose (Sigma #G5400, St.Louis, Mo.), 1.5 g/L sodium bicarbonate (Biowhittaker #17-613E, Walkersville, Md.) and Pen/Strep (Gibco #10378-016, Carlsbad, Calif.). Cells are splitted twice weekly.
The potency of test compounds against various Tel-TK transformed Ba/F3 lines is determined as follows. Exponentially growing BaF3 Tel-TK cells are diluted in fresh medium to 75,000 cells/mL and seeded into 384-well plates (3750 cells/well) at 50 μL/well using a gill liquid dispenser (BioTek, Winooski, Vt., USA). […] 25 μL Britelite (Perkin Elmer) is added and luminescence is quantified using Analyst GT (Molecular Devices). […]

T1 sequence (P08069 999-1274 limits assumed): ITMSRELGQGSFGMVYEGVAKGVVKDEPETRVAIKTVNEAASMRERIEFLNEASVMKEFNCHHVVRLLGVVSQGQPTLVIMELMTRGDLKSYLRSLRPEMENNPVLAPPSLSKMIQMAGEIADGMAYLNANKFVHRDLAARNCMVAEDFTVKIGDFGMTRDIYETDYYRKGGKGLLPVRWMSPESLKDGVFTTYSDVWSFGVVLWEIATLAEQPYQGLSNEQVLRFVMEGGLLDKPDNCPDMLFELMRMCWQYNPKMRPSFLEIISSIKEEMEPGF

Structure (SMILES)	IC50
Cc1cc(Nc2nc(Nc3cc(C)c(-c4cccnc4)cc3C)ncc2Cl)n[nH]1 [Compound 13]	0.029 µM

Target: T1, IGF1R Ba/F3
Assay: as above
Assay type: cell-based, murine
Parameters: the printed alternative
Conditions: Tel-TK (IGF1R) transformed Ba/F3 cells, 48 hours incubation, cell viability (Britelite luminescence)
Remark: another data set of the same source
Method in brief: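 Murine pro-B Ba/F3 cells made IL-3-independent by TEL(1-375)- or BCR-fused tyrosine kinases; parental line run with 1 ng/ml IL-3 (final). 3750 cells/well exposed to DMSO-diluted compound for 48 h at 37 °C; viability read by Britelite luminescence. IC50 from logistic fit, concentration reducing viability to 50% of DMSO control.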

Structure (SMILES)	IC50
Cc1cc(Nc2nc(Nc3cc(C)c([C@H]4CC[C@H](NC5CC5)CC4)cc3C)ncc2Cl)n[nH]1 [Compound 46, Trans-5-chloro-N2-(4-(4-(cyclopropylamino)cyclohexyl)-2,5-dimethylphenyl)-N4-(5-methyl-1H-pyrazol-3-yl)pyrimidine-2,4-diamine]	0.016 µM
Cc1cc(Nc2nc(Nc3cc(C)c(-c4ncc[nH]4)cc3C)ncc2Cl)n[nH]1 [Compound 17, N2-(4-(1H-imidazol-2-yl)-2,5-dimethylphenyl)-5-chloro-N4-(5-methyl-1H-pyrazol-3-yl)pyrimidine-2,4-diamine]	0.068 µM
Cc1cc(Nc2nc(Nc3ccc(C4CCNCC4)c4ccccc34)ncc2Cl)n[nH]1 [Compound 85, 5-chloro-N^4-(5-methyl-1H-pyrazol-3-yl)-N^2-(4-(piperidin-4-yl)naphthalene-1-yl)pyrimidine-2,4-diamine]	0.493 µM
Cc1cc(Nc2nc(Nc3cc(C)c([C@H]4CC[C@@H](N5CCOCC5)CC4)cc3F)ncc2Cl)n[nH]1 [Compound 51, Cis-5-chloro-N2-(2-fluoro-5-methyl-4-(4-morpholinocyclohexyl)phenyl)-N4-(5-methyl-1H-pyrazol-3-yl)pyrimidine-2,4-diamine]	0.4 µM
Cc1cc(Nc2nc(Nc3cc(C)c([C@H]4CC[C@H](N5CCCCC5)CC4)cc3C)ncc2C(F)(F)F)n[nH]1 [Compound 61, N2-(2,5-dimethyl-4-((trans)-4-(piperidin-1-yl)cyclohexyl)phenyl)-N4-(5-methyl-1H-pyrazol-3-yl)-5-(trifluoromethyl)pyrimidine-2,4-diamine]	0.003 µM
Cc1cc(Nc2nc(Nc3cc(C)c(CN4CCOCC4)cc3C)ncc2Cl)n[nH]1 [Compound 39, 5-Chloro-N^2-(2,5-dimethyl-4-(morpholinomethyl)phenyl)-N^4-(5-methyl-1H-pyrazol-3-yl)pyrimidine-2,4-diamine]	0.151 µM
CNC(=O)c1ccc(-c2cc(C)c(Nc3ncc(Cl)c(Nc4cc(C)[nH]n4)n3)cc2C)cn1 [Compound 14, 5-(4-(5-chloro-4-(5-methyl-1H-pyrazol-3-ylamino)pyrimidin-2-ylamino)-2,5-dimethylphenyl)-N-methylpicolinamide]	0.015 µM
Cc1cc(Nc2nc(Nc3cc(C)c([C@H]4CC[C@@H](N5CCCCC5)CC4)cc3F)ncc2C(F)(F)F)n[nH]1 [Compound 62, N^2-(2-fluoro-5-methyl-4-(cis-4-(piperidin-1-yl)cyclohexyl)phenyl)-N^4-(5-methyl-1H-pyrazol-3-yl)-5-(trifluoromethyl)pyrimidine-2,4-diamine]	0.018 µM
Cc1cc(Nc2nc(Nc3cc(C)c([C@H]4CC[C@H](N5CCCCC5)CC4)cc3F)ncc2C(F)(F)F)n[nH]1 [Compound 63, N^2-(2-fluoro-5-methyl-4-(trans-4-(piperidin-1-yl)cyclohexyl)phenyl)-N^4-(5-methyl-1H-pyrazol-3-yl)-5-(trifluoromethyl)pyrimidine-2,4-diamine]	0.016 µM
Cc1cc(Nc2nc(Nc3cc(C)c([C@H]4CC[C@@H](N5C[C@@H](O)[C@H](O)C5)CC4)cc3F)ncc2C(F)(F)F)n[nH]1 [Compound 71, (3R,4R)-1-((cis)-4-(5-fluoro-2-methyl-4-(4-(5-methyl-1H-pyrazol-3-ylamino)-5-(trifluoromethyl)pyrimidin-2-ylamino)phenyl)cyclohexyl)pyrrolidine-3,4-diol]	0.109 µM
Cc1cc(Nc2nc(Nc3cc(C)c(-c4cccnc4)cc3F)ncc2Cl)n[nH]1 [Compound 3, 5-chloro-N2-(2-fluoro-5-methyl-4-(pyridin-3-yl)phenyl)-N4-(5-methyl-1H-pyrazol-3-yl)pyrimidine-2,4-diamine]	0.067 µM
Cc1cc(Nc2nc(Nc3cc(C)c([C@H]4CC[C@H](N5CCNCC5)CC4)cc3F)ncc2Cl)n[nH]1 [Compound 59, 5-chloro-N2-(2-fluoro-5-methyl-4-((trans)-4-(piperazin-1-yl)cyclohexyl)phenyl)-N4-(5-methyl-1H-pyrazol-3-yl)pyrimidine-2,4-diamine]	0.039 µM
Cc1cc(Nc2nc(Nc3cc(C)c(-c4cnc5ccccc5c4)cc3F)ncc2Cl)n[nH]1 [Compound 7, 5-chloro-N2-(2-fluoro-5-methyl-4-(quinolin-3-yl)phenyl)-N4-(5-methyl-1H-pyrazol-3-yl)pyrimidine-2,4-diamine]	0.579 µM
Cc1ccc(-c2cc(F)c(Nc3ncc(Cl)c(Nc4cc(C)[nH]n4)n3)cc2C)cn1 [Compound 5, 5-chloro-N2-(2-fluoro-5-methyl-4-(6-methylpyridin-3-yl)phenyl)-N4-(5-methyl-1H-pyrazol-3-yl)pyrimidine-2,4-diamine]	0.137 µM
Cc1cc(Nc2nc(Nc3cc(C)c(C4CCC(=NO)CC4)cc3C)ncc2Cl)n[nH]1 (stereo not drawn) [Compound 33, 4-(4-(5-chloro-4-(5-methyl-1H-pyrazol-3-ylamino)pyrimidin-2-ylamino)-2,5-dimethylphenyl)cyclohexanone oxime]	0.015 µM
Cc1cc(Nc2nc(Nc3cc(C)c(-c4cnco4)cc3C)ncc2Cl)n[nH]1 [Compound 20, 5-chloro-N2-(2,5-dimethyl-4-(oxazol-5-yl)phenyl)-N4-(5-methyl-1H-pyrazol-3-yl)pyrimidine-2,4-diamine]	0.109 µM
CCN(CC)[C@H]1CC[C@@H](c2cc(F)c(Nc3ncc(Cl)c(Nc4cc(C)[nH]n4)n3)cc2C)CC1 [Compound 56, 5-chloro-N2-(4-((cis)-4-(diethylamino)cyclohexyl)-2-fluoro-5-methylphenyl)-N4-(5-methyl-1H-pyrazol-3-yl)pyrimidine-2,4-diamine]	0.025 µM
C/C(=N\OCCN1CCOCC1)c1cc(C)c(Nc2ncc(Cl)c(Nc3cc(C)[nH]n3)n2)cc1C [Compound 36, 1-(4-(5-chloro-4-(5-methyl-1H-pyrazol-3-ylamino)pyrimidin-2-ylamino)-2,5-dimethylphenyl)ethanone O-2-morpholinoethyl oxime]	0.187 µM
Cc1cc(Nc2nc(Nc3cc(C)c([C@H]4CC[C@@H](N5CCOCC5)CC4)cc3C)ncc2Cl)n[nH]1 [Compound 38, 5-chloro-N^2-(2,5-dimethyl-4-(4-cis-morpholinocyclohexyl)phenyl)-N^4-(5-methyl-1H-pyrazol-3-yl)pyrimidine-2,4-diamine]	0.009 µM
Cc1cc(Nc2nc(Nc3cc(C)c([C@H]4CC[C@@H](N5CCOCC5)CC4)cc3C)ncc2C(F)(F)F)n[nH]1 [Compound 66, N^2-(2,5-dimethyl-4-(cis-4-morpholinocyclohexyl)phenyl)-N^4-(5-methyl-1H-pyrazol-3-yl)-5-(trifluoromethyl)pyrimidine-2,4-diamine]	0.014 µM

— patent US8445505B2 (IRM LLC, priority 2008, dated 2013)
